For 22 molecules, IC50 results are on record in US12331040B2 (Karyopharm Therapeutics Inc., priority 2013, dated 2025).

What all share (experiment): MTT cell proliferation assay
What all share (format): cell-based
On the technique in general: Tetrazolium dyes change colour on reduction, which living cells bring about.

The subject of one assay is MS751 cells. As to conditions: Homo sapiens, MS751, MS751 cells, approximately 64-72 hours incubation. In short, it runs like this:
(§1)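 5,000-10,000 cells/well, overnight attach; 8 conc., 1 nM–30 μM; MTT ~4 h; formazan solubilized, OD 490 nm; % inhibition = (1−(ODo/OD))×100 vs neg. control; mostly duplicate, mean±SE.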

A further assay concerns 3T3 cells. The following applies: Mus musculus, NIH3T3, approximately 64-72 hours incubation. In a few lines: as §1
Another assay deals with Z138 cells. The following applies: Homo sapiens, Z-138, Z138 cells, approximately 64-72 hours incubation. In a few lines:
as §1

Where [1] appears, read: read-out: MTT Assay IC50 MS-751.
[2] abbreviates: read-out: MTT Assay IC50, MS-751.
Setting [3] is: read-out: MTT Assay IC50, Z-138.

The IC50 is the midpoint of a concentration-inhibition curve.

Where two headings read alike, the source gives them in different places. A value given as a limit tells only on which side of the number the result lay.

As for `COc1cc(-c2ccc(C(=O)N3CCOCC3)cc2)cc2cc(CNC(=O)/C=C/c3ccc(N)nc3)oc12` [Compound 592, (E)-3-(6-aminopyridin-3-yl)-N-((7-methoxy-5-(4-(morpholine-4-carbonyl)phenyl)benzofuran-2-yl)methyl)acrylamide], the IC50 with MS751 cells (setting [1]) is 0.1 to 5 µM; in the assay with 3T3 cells (read-out: MTT Assay IC50 3T3) it was greater than 10 µM; in the assay with Z138 cells (read-out: MTT Assay IC50 Z-138) it was less than 0.1 µM.
For `CC1(F)CCN(C(=O)c2ccc(-c3cc(C(F)(F)F)c4oc(CNC(=O)/C=C/c5ccc(N)nc5)cc4c3)cc2)CC1` [Compound 604, (E)-3-(6-aminopyridin-3-yl)-N-((5-(4-(4-fluoro-4-methylpiperidine-1-carbonyl)phenyl)-7-(trifluoromethyl)benzofuran-2-yl)methyl)acrylamide], the figures for the IC50 with MS751 cells (setting [1]), in the assay with 3T3 cells (read-out: MTT Assay IC50 3T3) and in the assay with Z138 cells (read-out: MTT Assay IC50 Z-138) were 0.1 to 5 µM, greater than 10 µM and 0.1 to 5 µM, respectively.
With `Nc1ccc(/C=C/C(=O)NCc2cc3cc(-c4ccc(C(=O)N5CC(F)(F)C5)cn4)cc(C(F)(F)F)c3o2)cn1` [Compound 645, (E)-3-(6-aminopyridin-3-yl)-N-((5-(5-(3,3-difluoroazetidine-1-carbonyl)pyridin-2-yl)-7-(trifluoromethyl)benzofuran-2-yl)methyl)acrylamide], the IC50 with MS751 cells (setting [1]) was 0.1 to 5 µM; with 3T3 cells (read-out: MTT Assay IC50 3T3) it was greater than 10 µM; with Z138 cells (read-out: MTT Assay IC50 Z-138), less than 0.1 µM.
Regarding `O=C(/C=C/c1cscn1)NCc1cc2cc(-c3ccc(C(=O)N4CCOCC4)cc3)cc(Cl)c2o1` [Compound 542], the IC50 with MS751 cells (setting [1]) is 0.1 to 5 µM; in the assay with 3T3 cells (read-out: MTT Assay IC50 3T3), greater than 10 µM; with Z138 cells (read-out: MTT Assay IC50 Z-138), 0.1 to 5 µM.
As for `Nc1ccc(/C=C/C(=O)NCc2cc3cc(-c4ccc(C(=O)N5CCC(F)(F)CC5)cc4F)cc(C(F)(F)F)c3o2)cn1` [Compound 683, (E)-3-(6-aminopyridin-3-yl)-N-((5-(4-(4,4-difluoropiperidine-1-carbonyl)-2-fluorophenyl)-7-(trifluoromethyl)benzofuran-2-yl)methyl)acrylamide], the half-maximal inhibitory concentration (IC50) in the assay with MS751 cells (setting [2]) was 0.1 to 5 µM; in the assay with 3T3 cells (read-out: MTT Assay IC50, 3T3), greater than 10 µM; in the assay with Z138 cells (setting [3]) it was 0.1 to 5 µM.
Regarding `Nc1ccc(/C=C/C(=O)NCc2cc3cc(-c4ccc(CC(=O)N5CCOCC5)cc4)cc(Cl)c3o2)cn1` [Compound 553, (E)-3-(6-Aminopyridin-3-yl)-N-((7-chloro-5-(4-(2-morpholino-2-oxoethyl)phenyl)benzofuran-2-yl)methyl)acrylamide], the IC50 was 0.1 to 5 µM in the assay on MS751 cells (setting [1]), greater than 10 µM in the assay on 3T3 cells (read-out: MTT Assay IC50 3T3) and 0.1 to 5 µM in the assay on Z138 cells (read-out: MTT Assay IC50 Z-138).
With `Nc1ccc(/C=C/C(=O)NCc2cc3cc(-c4ccc(C(=O)N5CCC(F)(F)CC5)cn4)cc(-c4cccnc4)c3o2)cn1` [Compound 669, (E)-3-(6-aminopyridin-3-yl)-N-((5-(5-(4,4-difluoropiperidine-1-carbonyl)pyridin-2-yl)-7-(pyridin-3-yl)benzofuran-2-yl)methyl)acrylamide], the IC50 with MS751 cells (setting [2]) was less than 0.1 µM; with 3T3 cells (read-out: MTT Assay IC50, 3T3), 0.1 to 5 µM; in the assay on Z138 cells (setting [3]), less than 0.1 µM.
On to `O=C(/C=C/c1cccnc1)NCc1cc2cc(-c3ccc(C(=O)N4CCC(F)(F)CC4)cc3)cc(-c3cccc(F)c3)c2o1` [Compound 727, (E)-N-((5-(4-(4,4-difluoropiperidine-1-carbonyl)phenyl)-7-(3-fluorophenyl)benzofuran-2-yl)methyl)-3-(pyridin-3-yl)acrylamide], for which the IC50 in the assay with MS751 cells (setting [2]) is less than 0.1 µM; in the assay on 3T3 cells (read-out: MTT Assay IC50, 3T3) it was less than 0.1 µM; with Z138 cells (setting [3]), less than 0.1 µM.
As to `Nc1ccc(/C=C/C(=O)NCc2cc3cc(-c4ccc(F)c(S(=O)(=O)N5CCOCC5)c4)cc(Cl)c3o2)cn1` [Compound 636, (E)-3-(6-aminopyridin-3-yl)-N-((7-chloro-5-(4-fluoro-3-(morpholinosulfonyl)phenyl)benzofuran-2-yl)methyl)acrylamide], the half-maximal inhibitory concentration (IC50) with MS751 cells (setting [1]) was 0.1 to 5 µM; in the assay on 3T3 cells (read-out: MTT Assay IC50 3T3) it was greater than 10 µM; in the assay on Z138 cells (read-out: MTT Assay IC50 Z-138) it was 0.1 to 5 µM.
As for `O=C(/C=C/c1cccnn1)NCc1cc2cc(-c3ccc(C(=O)N4CCOCC4)cc3)cc(Cl)c2o1` [Compound 540, (E)-N-((7-chloro-5-(4-(morpholine-4-carbonyl)phenyl)benzofuran-2-yl)methyl)-3-(pyridazin-3-yl)acrylamide], the IC50 in the assay on MS751 cells (setting [1]), in the assay on 3T3 cells (read-out: MTT Assay IC50 3T3) and in the assay with Z138 cells (read-out: MTT Assay IC50 Z-138) was 5 to 10 µM throughout.
Take `Nc1ccc(/C=C/C(=O)NCc2cc3cc(-c4ccc(C(=O)N5CCC(F)(F)CC5)cc4F)cc(-c4cccc(F)c4)c3o2)cn1` [Compound 755, (E)-3-(6-aminopyridin-3-yl)-N-((5-(4-(4,4-difluoropiperidine-1-carbonyl)-2-fluorophenyl)-7-(3-fluorophenyl)benzofuran-2-yl)methyl)acrylamide]: the half-inhibitory concentration (IC50) in the assay with MS751 cells (setting [2]) was 0.1 to 5 µM; in the assay with 3T3 cells (read-out: MTT Assay IC50, 3T3), 0.1 to 5 µM; in the assay with Z138 cells (setting [3]), less than 0.1 µM.
`O=C(/C=C/c1ccc(C(F)(F)F)nc1)NCc1cc2cc(-c3ccc(C(=O)N4CCOCC4)cc3)cc(Cl)c2o1` [Compound 536, (E)-N-((7-Chloro-5-(4-(morpholine-4-carbonyl)phenyl)benzofuran-2-yl)methyl)-3-(6-(trifluoromethyl)pyridin-3-yl)acrylamide]: the concentration for half-maximal inhibition (IC50) in the assay with MS751 cells (setting [1]) was greater than 10 µM; in the assay on 3T3 cells (read-out: MTT Assay IC50 3T3), greater than 10 µM; in the assay with Z138 cells (read-out: MTT Assay IC50 Z-138), 5 to 10 µM.
Turning to `CN1Cc2cc(-c3cc(Cl)c4oc(CNC(=O)/C=C/c5ccc(N)nc5)cc4c3)ccc2C1=O` [Compound 513, (E)-3-(6-aminopyridin-3-yl)-N-((7-chloro-5-(2-methyl-1-oxoisoindolin-5-yl)benzofuran-2-yl)methyl)acrylamide], the IC50 in the assay on MS751 cells (setting [1]) was greater than 10 µM; in the assay on 3T3 cells (read-out: MTT Assay IC50 3T3), greater than 10 µM; in the assay on Z138 cells (read-out: MTT Assay IC50 Z-138), 0.1 to 5 µM.
Consider `Nc1ccc(/C=C/C(=O)NCc2cc3cc(-c4ccc(C(=O)N5CCC(F)(F)CC5)cc4)cc(-c4ccc(C(F)(F)F)cc4)c3o2)cn1` [Compound 733, (E)-3-(6-aminopyridin-3-yl)-N-((5-(4-(4,4-difluoropiperidine-1-carbonyl)phenyl)-7-(4-(trifluoromethyl)phenyl)benzofuran-2-yl)methyl)acrylamide], for which the IC50 is 0.1 to 5 µM in the assay on MS751 cells (setting [2]); greater than 10 µM with 3T3 cells (read-out: MTT Assay IC50, 3T3); 0.1 to 5 µM in the assay with Z138 cells (setting [3]).
`CCS(=O)(=O)c1ccc(-c2cc(-c3ccc(F)cc3)c3oc(CNC(=O)/C=C/c4ccc(N)nc4)cc3c2)cc1` [Compound 709, (E)-3-(6-aminopyridin-3-yl)-N-((5-(4-(ethylsulfonyl)phenyl)-7-(4-fluorophenyl)benzofuran-2-yl)methyl)acrylamide]: the IC50 in the assay with MS751 cells (setting [2]) was less than 0.1 µM; in the assay on 3T3 cells (read-out: MTT Assay IC50, 3T3) it was greater than 10 µM; in the assay on Z138 cells (setting [3]), less than 0.1 µM.
Consider `Nc1ccc(/C=C/C(=O)NCc2cc3cc(-c4ccc(C(=O)N5CCC(F)(F)CC5)cc4)cc(-c4ccc(F)c(F)c4)c3o2)cn1` [Compound 737, (E)-3-(6-aminopyridin-3-yl)-N-((7-(3,4-difluorophenyl)-5-(4-(4,4-difluoropiperidine-1-carbonyl)phenyl)benzofuran-2-yl)methyl)acrylamide], for which the IC50 in the assay on MS751 cells (setting [2]) is less than 0.1 µM; in the assay on 3T3 cells (read-out: MTT Assay IC50, 3T3) it was 0.1 to 5 µM; with Z138 cells (setting [3]), less than 0.1 µM.
As to `Nc1ccc(/C=C/C(=O)NCc2cc3cc(-c4ccc(C(=O)N5CCC(F)(F)CC5)cn4)cnc3o2)cn1` [Compound 658, (E)-3-(6-aminopyridin-3-yl)-N-((5-(5-(4,4-difluoropiperidine-1-carbonyl)pyridin-2-yl)furo[2,3-b]pyridin-2-yl)methyl)acrylamide], the half-maximal inhibitory concentration (IC50) with MS751 cells (setting [2]) was 0.1 to 5 µM; in the assay on 3T3 cells (read-out: MTT Assay IC50, 3T3) it was greater than 10 µM; in the assay with Z138 cells (setting [3]), 0.1 to 5 µM.
With `Nc1ccc(/C=C/C(=O)NCc2cc3c(C(F)(F)F)cc(-c4ccc(C(=O)N5CCC(F)(F)CC5)cn4)cc3o2)cn1` [Compound 762, (E)-3-(6-aminopyridin-3-yl)-N-((6-(5-(4,4-difluoropiperidine-1-carbonyl)pyridin-2-yl)-4-(trifluoromethyl)benzofuran-2-yl)methyl)acrylamide], the IC50 in the assay with MS751 cells (setting [2]) was 5 to 10 µM; in the assay with 3T3 cells (read-out: MTT Assay IC50, 3T3), greater than 10 µM; in the assay with Z138 cells (setting [3]), 0.1 to 5 µM.
In the case of `O=C(/C=C/c1cccnc1)NCc1cc2cc(-c3ccc(C(=O)N4CC5(COC5)C4)cc3)cc(C(F)(F)F)c2o1` [Compound 688, (E)-N-((5-(4-(2-oxa-6-azaspiro[3.3]heptane-6-carbonyl)phenyl)-7-(trifluoromethyl)benzofuran-2-yl)methyl)-3-(pyridin-3-yl)acrylamide], the IC50 lay within 0.1 to 5 µM with MS751 cells (setting [2]); 0.1 to 5 µM with 3T3 cells (read-out: MTT Assay IC50, 3T3); 0.1 to 5 µM with Z138 cells (setting [3]).
For `Nc1ccc(/C=C/C(=O)NCc2cc3cc(-c4ccc(C(=S)N5CCC(F)(F)CC5)cc4)cc(-c4ccc(F)cc4F)c3o2)cn1` [Compound 706, (E)-3-(6-aminopyridin-3-yl)-N-((7-(2,4-difluorophenyl)-5-(4-(4,4-difluoropiperidine-1-carbonothioyl)phenyl)benzofuran-2-yl)methyl)acrylamide], the IC50 in the assay on MS751 cells (setting [2]) is less than 0.1 µM; with 3T3 cells (read-out: MTT Assay IC50, 3T3) it was 0.1 to 5 µM; in the assay on Z138 cells (setting [3]) it was less than 0.1 µM.
Turning to `Nc1ccc(/C=C/C(=O)NCc2cc3cc(-c4ccc(C(=O)N5CCOCC5)cc4)cc(C(F)F)c3o2)cn1` [Compound 557, (E)-3-(6-aminopyridin-3-yl)-N-((7-(difluoromethyl)-5-(4-(morpholine-4-carbonyl)phenyl)benzofuran-2-yl)methyl)acrylamide], the IC50 with MS751 cells (setting [1]) was 0.1 to 5 µM; with 3T3 cells (read-out: MTT Assay IC50 3T3), greater than 10 µM; in the assay with Z138 cells (read-out: MTT Assay IC50 Z-138) it was 0.1 to 5 µM.
For `Nc1ccc(/C=C/C(=O)NCc2cc3cc(-c4ccc(C(=O)N5CCNCC5)cc4)cc(C(F)(F)F)c3o2)cn1` [Compound 564, (E)-3-(6-aminopyridin-3-yl)-N-((5-(4-(piperazine-1-carbonyl)phenyl)-7-(trifluoromethyl)benzofuran-2-yl)methyl)acrylamide], the IC50 in the assay with MS751 cells (setting [1]) was less than 0.1 µM; in the assay with 3T3 cells (read-out: MTT Assay IC50 3T3), greater than 10 µM; in the assay on Z138 cells (read-out: MTT Assay IC50 Z-138) it was less than 0.1 µM.
